Assay results published in patent US11253477B2, “Compositions based on propolis nanocapsules which can be used as carriers for substances of interest, methods for producing same and use thereof” (EMPRESA BRASILEIRA DE PESQUISA AGROPECUÁRIA—EMBRAPA, priority 2010, dated 2022).

System: Staphyloccoccus aureus, strain ATCC23273
Assay: Colony forming units in agar BHI of samples from the bactericidal/bacteriostatic test
Type: cell-based, Staphylococcus aureus
Parameters: key to Colony forming unites (CFU) in agar BHI: i = uncountable
Experimental: The bactericidal/bacteriostatic effect of the propolis nanoparticles, of nanoencapsulated arithromycin in propolis extract and of pure arithromycin was determined in vitro against samples of Staphylocossus aureus (strain ATCC23273) cultivated in Mueller Hinton culture broth, according to Table 3. Since azithromycyn is a bacteriostatic antibiotic, the samples of the different dilutions were used to determine the core of colony forming units (UFC) in agar BHI (brain-heart-infusion), and thereby determine the bactericidal/bacteriostatic effect shown in Table 4.

CC[C@H]1OC(=O)[C@H](C)[C@@H](O[C@H]2C[C@@](C)(OC)[C@@H](O)[C@H](C)O2)[C@H](C)[C@@H](O[C@@H]2O[C@H](C)C[C@H](N(C)C)[C@H]2O)[C@](C)(O)C[C@@H](C)CN(C)[C@H](C)[C@@H](O)[C@]1(C)O [A, azithromycin]
concentration with bactericidal effect on Staphylococcus aureus (from broth test and CFU count): ≥ 128 µg/mL
Colony forming unites (CFU) in agar BHI (origin tube 4): i
Colony forming unites (CFU) in agar BHI (origin tube 8): 30 UFC
Colony forming unites (CFU) in agar BHI (origin tube 16): 3 UFC
Colony forming unites (CFU) in agar BHI (origin tube 32): 1 UFC
Colony forming unites (CFU) in agar BHI (origin tube 64): 1 UFC
Colony forming unites (CFU) in agar BHI (origin tube 128): 0 UFC
Colony forming unites (CFU) in agar BHI (origin tube 512): 0 UFC
Colony forming unites (CFU) in agar BHI (origin tube 526): 0 UFC
